# Measured values taken from patent publication US9493432B2, “Cyclopentylbenzamide derivatives and their use for the treatment of psychotic and cognitive disorders” (Takeda Pharmaceutical Company Limited, priority 2013, dated 2016).
# pIC50: −log10 of the molar value.
# Experiments:
# human orexin receptor 2 = human orexin receptor 2 (Homo sapiens (Human), UniProt O43614); experiment: Orexin antagonist activity, intracellular calcium FLIPR assay (orexin receptor 2); format: cell-based; conditions: RBL-2H3 cells stably expressing human orexin receptor 2; Ca2+ dye FLIPR; compound 15 minutes before orexin-A at approximately 80% maximal response; read-out: Human Orexin2R IC50
# Sequence of human orexin receptor 2 (O43614 whole entry): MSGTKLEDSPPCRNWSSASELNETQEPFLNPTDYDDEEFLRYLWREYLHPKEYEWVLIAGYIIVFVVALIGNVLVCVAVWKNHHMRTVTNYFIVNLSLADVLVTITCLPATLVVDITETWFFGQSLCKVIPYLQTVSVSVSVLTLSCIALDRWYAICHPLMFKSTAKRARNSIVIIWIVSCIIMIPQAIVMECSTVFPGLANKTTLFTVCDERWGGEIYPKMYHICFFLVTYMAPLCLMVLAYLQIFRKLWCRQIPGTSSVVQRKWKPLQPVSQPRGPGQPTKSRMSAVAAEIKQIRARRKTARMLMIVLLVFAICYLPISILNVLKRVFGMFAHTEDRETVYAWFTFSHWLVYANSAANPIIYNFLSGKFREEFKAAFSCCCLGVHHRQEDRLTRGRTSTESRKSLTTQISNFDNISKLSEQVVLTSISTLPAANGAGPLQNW
# Procedure: (§1) Orexin antagonist activity was determined by measuring changes in intracellular calcium levels using a Ca^2+ sensitive fluorescent dye. The changes in fluorescent signal were monitored by Fluorescent Imaging Plate Reader (FLIPR™) technology available from Molecular Devices, LLC, U.S.A. Orexin mediated increases in intracellular Ca^2+ concentration were readily detected upon activation with orexin-A. Twenty-four hours prior to the assay, RBL-2H3 cells stably expressing either human orexin receptor 1 or human orexin receptor 2 were seeded in cell culture medium in black, clear-bottom 384-well plates (commercially available from Corning Inc., U.S.A.) and grown overnight at 37° C., 5% CO2. On the day of the assay, cell culture media was removed and cells were loaded with Calcium 5 Dye (commercially sold by Molecular Devices, LLC, U.S.A.) for 1 hour at 37° C., 5% CO2. Test compounds (at 10 point half log concentration response curves from 10 μM) were added to cells for 15 minutes prior to the addition of orexin-A to all wells, to achieve a final concentration that produces approximately an 80% maximal response. The IC50 values were determined from ten point concentration response curves. Curves were generated using the average of two wells for each data point.
# human orexin receptor 1 = human orexin receptor 1 (Homo sapiens (Human), UniProt O43613); experiment: Orexin antagonist activity, intracellular calcium FLIPR assay (orexin receptor 1); format: cell-based; conditions: RBL-2H3 cells stably expressing human orexin receptor 1; Ca2+ dye FLIPR; compound 15 minutes before orexin-A at approximately 80% maximal response; read-out: Human Orexin1R IC50
# Sequence of human orexin receptor 1 (O43613 whole entry): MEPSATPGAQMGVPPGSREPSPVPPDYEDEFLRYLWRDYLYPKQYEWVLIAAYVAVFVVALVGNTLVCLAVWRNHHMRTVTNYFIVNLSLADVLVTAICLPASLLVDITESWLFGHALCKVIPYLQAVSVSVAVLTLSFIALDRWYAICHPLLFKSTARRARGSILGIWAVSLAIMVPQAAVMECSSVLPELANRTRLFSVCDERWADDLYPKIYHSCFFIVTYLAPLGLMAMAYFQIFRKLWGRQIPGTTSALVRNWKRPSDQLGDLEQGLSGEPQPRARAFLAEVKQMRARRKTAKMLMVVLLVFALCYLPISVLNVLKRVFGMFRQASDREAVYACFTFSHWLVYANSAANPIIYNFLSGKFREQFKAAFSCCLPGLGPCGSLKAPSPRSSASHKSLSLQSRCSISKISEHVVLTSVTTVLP
# Procedure: as §1
SMILES,pIC50 (human orexin receptor 2),pIC50 (human orexin receptor 1)
"COc1cccc(OC)c1C(=O)N[C@H]1CCC[C@@H]1N(C)c1nc2ccc(F)cc2s1 [Example 8, N-[(1S,2S)-2-[(6-Fluoro-1,3-benzothiazol-2-yl)(methyl)amino]cyclopentyl]-2,6-dimethoxybenzamide]",5.68,7.46
"COc1cccc(OC)c1C(=O)N[C@H]1CCC[C@@H]1Nc1nc2ccccc2o1 [Example 9, N-[(1S,2S)-2-[(1,3-Benzoxazol-2-yl)amino]cyclopentyl]-2,6-dimethoxy-benzamide]",< 5.00,7.00
"COc1cccc(OC)c1C(=O)N[C@@H]1CCC[C@H]1Nc1nc2ccccc2o1 [Example 12, N-[(1R,2R)-2-[(1,3-Benzoxazol-2-yl)amino]cyclopentyl]-2,6-dimethoxy-benzamide]",5.46,6.33
"COc1cccc(OC)c1C(=O)N[C@@H]1CCC[C@@H]1Nc1nc2ccc(Cl)cc2s1 [Example 13, N-[(1R,2S)-2-[(6-Chloro-1,3-benzothiazol-2-yl)amino]cyclopentyl]-2,6-dimethoxybenzamide]",5.28,6.24
"COc1cccc(OC)c1C(=O)N[C@@H]1CCC[C@H]1Nc1nc2ccc(Cl)cc2s1 [Example 14, N-[(1R,2R)-2-[(6-Chloro-1,3-benzothiazol-2-yl)amino]cyclopentyl]-2,6-dimethoxybenzamide]",6.17,6.00
"COc1cccc(OC)c1C(=O)N[C@H]1CCC[C@H]1Nc1nc2ccc(Cl)cc2s1 [Example 15, N-[(1S,2R)-2-[(6-Chloro-1,3-benzothiazol-2-yl)amino]cyclopentyl]-2,6-dimethoxybenzamide]",6.80,7.46
"Cc1ccc(-n2nccn2)c(C(=O)N[C@H]2CCC[C@@H]2Nc2nc3ccc(F)cc3s2)c1 [Example 16, N-[(1S,2S)-2-[(6-Fluoro-1,3-benzothiazol-2-yl)amino]cyclopentyl]-5-methyl-2-(2H-1,2,3-triazol-2-yl)benzamide]",5.70,7.89
"CCOc1cccc(OCC)c1C(=O)N[C@H]1CCC[C@H]1Nc1nc2ccccc2o1 [Example 18, N-[(1S,2R)-2-[(1,3-Benzoxazol-2-yl)amino]cyclopentyl]-2,6-diethoxy-benzamide]",6.34,7.60
"Cc1ccc(-n2nccn2)c(C(=O)N[C@H]2CCC[C@@H]2Nc2ccc3ccccc3n2)c1 [Example 20, 5-Methyl-N-[(1S,2S)-2-[(quinolin-2-yl)amino]cyclopentyl]-2-(2H-1,2,3-triazol-2-yl)benzamide]",5.39,6.54
"CCOC(=O)N1CC(NC(=O)c2c(OC)cccc2OC)C(Nc2nc3ccc(Cl)cc3s2)C1 (stereo not drawn) [Example 23, Ethyl cis-3-[(6-Chloro-1,3-benzothiazol-2-yl)amino]-4-[(2,6-dimethoxy-benzene)amido]pyrrolidine-1-carboxylate]",6.21,7.19
"CCOc1ccc(C)cc1C(=O)NC1CCCC1Cc1ccc2ccccc2n1 (stereo not shown) [Example 28, 2-Ethoxy-5-methyl-N-[2-(quinolin-2-ylmethyl)cyclopentyl]-benzamide]",5.72,6.85
"CCOc1cccc(OCC)c1C(=O)NC1CCCC1Cc1ccc2ccccc2n1 (stereo not shown) [Example 30, 2,6-Diethoxy-N-(2-(quinolin-2-ylmethyl)cyclopentyl)benzamide]",6.43,6.49
"CCOc1ccc(C)cc1C(=O)NC1CCCC1Cc1ccc2ccccc2n1 (stereo not shown) [Example 31, 2-Ethoxy-5-methyl-N-(2-(quinolin-2-ylmethyl)cyclopentyl)-benzamide]",5.48,7.04
"COc1cccc(OC)c1C(=O)NC1CCCC1Cc1nc2ccc(Cl)cc2s1 (stereo not shown) [Example 32, N-{2-[(6-Chloro-1,3-benzothiazol-2-yl)methyl]cyclopentyl}-2,6-dimethoxybenzamide]",6.01,6.05
"COc1cccc(OC)c1C(=O)N(C)[C@H]1CCC[C@@H]1Nc1nc2ccc(F)cc2s1 [Example 34, N-[(1S,2S)-2-[(6-Fluoro-1,3-benzothiazol-2-yl)amino]cyclopentyl]-2,6-dimethoxy-N-methylbenzamide]",5.96,8.33
"O=C(N[C@H]1CCC[C@@H]1Nc1nc2ccc(F)cc2s1)c1ccccc1-c1ncccn1 [Example 40, N-[(1S,2S)-2-[(6-Fluoro-1,3-benzothiazol-2-yl)amino]cyclopentyl]-2-(pyrimidin-2-yl)benzamide]",5.48,7.82
"O=C(N[C@H]1CCC[C@@H]1Nc1nc2ccc(F)cc2s1)c1ccccc1-n1cncn1 [Example 44, N-[(1S,2S)-2-[(6-Fluoro-1,3-benzothiazol-2-yl)amino]cyclopentyl]-2-(1H-1,2,4-triazol-1-yl)benzamide]",< 5.00,7.29

# More lines, now with the values ahead:
pIC50 (human orexin receptor 2),pIC50 (human orexin receptor 1),SMILES
< 5.00,7.46,"COc1cccc(OC)c1C(=O)N[C@H]1CCC[C@@H]1Nc1nc2cc(Cl)ccc2s1 [Example 6, N-[(1S,2S)-2-[(5-Chloro-1,3-benzothiazol-2-yl)amino]cyclopentyl]-2,6-dimethoxybenzamide]"
5.72,7.59,"COc1cccc(OC)c1C(=O)N[C@H]1CCC[C@H]1Nc1nc2ccccc2o1 [Example 7, N-[(1S,2R)-2-[(1,3-Benzoxazol-2-yl)amino]cyclopentyl]-2,6-dimethoxybenzamide]"
5.14,6.68,"COc1cccc(OC)c1C(=O)N[C@H]1CCC[C@@H]1Nc1nc2ccc(Cl)cc2s1 [Example 10, N-[(1S,2S)-2-[(6-Chloro-1,3-benzothiazol-2-yl)amino]cyclopentyl]-2,6-dimethoxybenzamide]"
5.74,6.44,"COc1cccc(OC)c1C(=O)N[C@@H]1CCC[C@H]1Nc1nc2ccccc2s1 [Example 11, N-[(1R,2R)-2-[(1,3-Benzothiazol-2-yl)amino]cyclopentyl]-2,6-dimethoxybenzamide]"
5.14,7.82,"Cc1ccc(-n2nccn2)c(C(=O)N[C@H]2CCC[C@@H]2Nc2nc3ccccc3s2)c1 [Example 19, N-[(1S,2S)-2-[(1,3-Benzothiazol-2-yl)amino]cyclopentyl]-5-methyl-2-(2H-1,2,3-triazol-2-yl)benzamide]"
5.07,7.64,"COc1cccc(OC)c1C(=O)NC1CN(C(=O)OCc2ccccc2)CC1Nc1nc2ccc(Cl)cc2s1 (stereo not drawn) [Example 22, Benzyl cis-3-[(6-chloro-1,3-benzothiazol-2-yl)amino]-4-[(2,6-dimethoxybenzene)amido]pyrrolidine-1-carboxylate]"
5.07,7.28,"Cc1ccc(-n2nccn2)c(C(=O)NC2CCCC2Cc2ccc3ccccc3n2)c1 (stereo not shown) [Example 27, 5-Methyl-N-[2-(quinolin-2-ylmethyl)cyclopentyl]-2-(2H-1,2,3-triazol-2-yl)benzamide]"
5.54,6.26,"COc1cccc(OC)c1C(=O)NC1CCCC1Cc1ccc2ccccc2n1 (stereo not shown) [Example 29, 2,6-Dimethoxy-N-[2-(quinolin-2-ylmethyl)cyclopentyl]benzamide]"
5.37,8.17,"O=C(N[C@H]1CCC[C@@H]1Nc1nc2ccc(F)cc2s1)c1ccccc1-n1cccn1 [Example 35, N-[(1S,2S)-2-[(6-Fluoro-1,3-benzothiazol-2-yl)amino]cyclopentyl]-2-(1H-pyrazol-1-yl)benzamide]"
5.27,8.08,"O=C(N[C@H]1CCC[C@@H]1Nc1nc2ccc(F)cc2s1)c1cc(F)ccc1-n1nccn1 [Example 36, 5-Fluoro-N-[(1S,2S)-2-[(6-fluoro-1,3-benzothiazol-2-yl)amino]cyclopentyl]-2-(2H-1,2,3-triazol-2-yl)benzamide]"
5.46,7.96,"O=C(N[C@H]1CCC[C@@H]1Nc1nc2ccc(F)cc2s1)c1ccccc1Cl [Example 37, 2-Chloro-N-[(1S,2S)-2-[(6-fluoro-1,3-benzothiazol-2-yl)amino]cyclopentyl]benzamide]"
< 5.00,7.89,"Cc1ccc(-n2ccnn2)c(C(=O)N[C@H]2CCC[C@@H]2Nc2nc3ccc(F)cc3s2)c1 [Example 38, N-[(1S,2S)-2-[(6-Fluoro-1,3-benzothiazol-2-yl)amino]cyclopentyl]-5-methyl-2-(1H-1,2,3-triazol-1-yl)benzamide]"
5.42,7.85,"Cc1noc(-c2ccccc2C(=O)N[C@H]2CCC[C@@H]2Nc2nc3ccc(F)cc3s2)n1 [Example 39, N-[(1S,2S)-2-[(6-Fluoro-1,3-benzothiazol-2-yl)amino]cyclopentyl]-2-(3-methyl-1,2,4-oxadiazol-5-yl)benzamide]"
5.68,7.80,"COc1ccc(OC)c(C(=O)N[C@H]2CCC[C@@H]2Nc2nc3ccc(F)cc3s2)c1 [Example 41, N-[(1S,2S)-2-[(6-Fluoro-1,3-benzothiazol-2-yl)amino]cyclopentyl]-2,5-dimethoxybenzamide]"
< 5.00,7.41,"O=C(N[C@H]1CCC[C@@H]1Nc1nc2ccc(F)cc2s1)c1ccccc1-n1ccnc1 [Example 43, N-[(1S,2S)-2-[(6-Fluoro-1,3-benzothiazol-2-yl)amino]cyclopentyl]-2-(1H-imidazol-1-yl)benzamide]"
